# Source: US9908872B2, “Methods to treat lymphoplasmacytic lymphoma” (Dana-Farber Cancer Institute, Inc., priority 2013, dated 2018)
# Where “and” joins values, the source holds several entries; their conditions need not be identical. Equal values may be shown once.
# How the values were obtained:
# FYN, SRC, YES = assay: KiNativ profiling, A375 cells; format: binding, Homo sapiens; settings: 1 μM, labeling site Activation Loop
# ROCK1, ROCK2 = assay: KiNativ profiling, A375 cells; format: binding, Homo sapiens; settings: 1 μM, labeling site Lys2
# MAP3K2, MAP3K3 = assay: KiNativ profiling, A375 cells; format: binding, Homo sapiens; settings: 1 μM, labeling site Lys2
# MST4, YSK1 = assay: KiNativ profiling, A375 cells; format: binding, Homo sapiens; settings: 1 μM, labeling site Lys2
# MAP2K1, MAP2K2 = assay: KiNativ profiling, A375 cells; format: binding, Homo sapiens; settings: 1 μM, labeling site Lys2
# PITSLRE = assay: KiNativ profiling, A375 cells; format: binding, Homo sapiens; settings: 1 μM, labeling site Lys2
# CDK11, CDK8 = assay: KiNativ profiling, A375 cells; format: binding, Homo sapiens; settings: 1 μM, labeling site Lys2
# p38d, p38g = assay: KiNativ profiling, A375 cells; format: binding, Homo sapiens; settings: 1 μM, labeling site Lys2
# ZAK = format: binding, Homo sapiens
# [1] = tested on: CaMK2a, CaMK2b, CaMK2d, CaMK2g; assay: KiNativ profiling, A375 cells; format: binding, Homo sapiens; settings: 1 μM, labeling site Lys2
# LYN = format: binding, Homo sapiens
# MARK2, MARK3 = assay: KiNativ profiling, A375 cells; format: binding, Homo sapiens; settings: 1 μM, labeling site Lys2
# JNK1, JNK2, JNK3 = assay: KiNativ profiling, A375 cells; format: binding, Homo sapiens; settings: 1 μM, labeling site Lys2
# ABL, ARG = assay: KiNativ profiling, A375 cells; format: binding, Homo sapiens; settings: 1 μM, labeling site Activation Loop
# NEK6, NEK7 = assay: KiNativ profiling, A375 cells; format: binding, Homo sapiens; settings: 1 μM, labeling site Lys2
# IKKe, TBK1 = assay: KiNativ profiling, A375 cells; format: binding, Homo sapiens; settings: 1 μM, labeling site Lys2
# TAO1, TAO3 = assay: KiNativ profiling, A375 cells; format: binding, Homo sapiens; settings: 1 μM, labeling site Lys2
# AMPKa1, AMPKa2 = assay: KiNativ profiling, A375 cells; format: binding, Homo sapiens; settings: 1 μM, labeling site Lys1
# PKD1, PKD2 = assay: KiNativ profiling, A375 cells; format: binding, Homo sapiens; settings: 1 μM, labeling site Lys2
# [2] = tested on: ZC1/HGK, ZC2/TNIK, ZC3/MINK; assay: KiNativ profiling, A375 cells; format: binding, Homo sapiens; settings: 1 μM, labeling site Lys2
# MARK1, MARK2 = assay: KiNativ profiling, A375 cells; format: binding, Homo sapiens; settings: 1 μM, labeling site Lys1
# Ramos = assay: CellTiter-Glo cell viability assay; format: cell-based; settings: 72 hours, cell survival
# Method: (§1) CellTiter-Glo® Luminescent cell viability assay (Promega) was used to assess cell survival following treatment with the compounds described. Cells were seeded into 384 well plates with the EL406 Combination Washer Dispenser (BioTek Instruments, Inc.), and the compounds were injected into the cells culture media with the JANUS Automated Workstation (PerkinElmer Inc.). Cells were treated with a series diluted inhibitors (20˜0.04 μM) for 72 hours at 37° C. Luminescent measurement is performed using the 2104 Envision® Multilabel Reader (PerkinElmer Inc.).
# OCI-Ly19 = assay: CellTiter-Glo cell viability assay; format: cell-based; settings: 72 hours, cell survival
# Method: as §1
# BCWM.1 = assay: CellTiter-Glo cell viability assay; format: cell-based; settings: 72 hours, cell survival
# Method: as §1
# MWCL-1 = assay: CellTiter-Glo cell viability assay; format: cell-based; settings: 72 hours, cell survival
# Method: as §1
# OCI-Ly3 = assay: CellTiter-Glo cell viability assay; format: cell-based; settings: Homo sapiens, 72 hours, cell survival
# Method: as §1
# RPCIWM-1 = assay: CellTiter-Glo cell viability assay; format: cell-based; settings: 72 hours, cell survival
# Method: as §1
smiles,measurement,setting,value
"Cc1ccc(C(=O)Nc2cccc(C(C)(C)C#N)c2)cc1NC(=O)c1cncc(-c2cccs2)c1 [I-6, N-(5-((3-(2-cyanopropan-2-yl)phenyl)carbamoyl)-2-methylphenyl)-5-(thiophen-2-yl)nicotinamide]","KiNativ inhibition of FYN, SRC, YES","FYN, SRC, YES",55.7%
same,"KiNativ inhibition of ROCK1, ROCK2","ROCK1, ROCK2",12.7%
same,"KiNativ inhibition of MAP3K2, MAP3K3","MAP3K2, MAP3K3",-15.3%
same,"KiNativ inhibition of MST4, YSK1","MST4, YSK1",22%
same,"KiNativ inhibition of MAP2K1, MAP2K2","MAP2K1, MAP2K2",4.1%
same,KiNativ inhibition of PITSLRE,PITSLRE,1.9%
same,"KiNativ inhibition of CDK11, CDK8","CDK11, CDK8",20.7%
same,"KiNativ inhibition of p38d, p38g","p38d, p38g",17.8%
same,KiNativ inhibition of ZAK,ZAK,>95%
same,"KiNativ inhibition of CaMK2a, CaMK2b, CaMK2d, CaMK2g",[1],0.7%
same,KiNativ inhibition of LYN,LYN,87.6%
same,"KiNativ inhibition of MARK2, MARK3","MARK2, MARK3",17.2%
same,"KiNativ inhibition of JNK1, JNK2, JNK3","JNK1, JNK2, JNK3",11.7%
same,"KiNativ inhibition of ABL, ARG","ABL, ARG",>90%
same,"KiNativ inhibition of NEK6, NEK7","NEK6, NEK7",-3.7%
same,"KiNativ inhibition of IKKe, TBK1","IKKe, TBK1",24.8%
same,"KiNativ inhibition of TAO1, TAO3","TAO1, TAO3",11.9%
same,"KiNativ inhibition of AMPKa1, AMPKa2","AMPKa1, AMPKa2",15.3%
same,"KiNativ inhibition of PKD1, PKD2","PKD1, PKD2",-2.5%
same,"KiNativ inhibition of ZC1/HGK, ZC2/TNIK, ZC3/MINK",[2],27%
same,"KiNativ inhibition of MARK1, MARK2","MARK1, MARK2",-4.9%
CCN1CCN(Cc2ccc(NC(=O)c3ccc(C)c(NC(=O)c4cncc(-c5cnoc5)c4)c3)cc2C(F)(F)F)CC1 [I-8],EC50,Ramos,329 nM
same,EC50,OCI-Ly19,56 nM
CCN1CCN(Cc2ccc(NC(=O)c3ccc(C)c(NC(=O)c4cncc(-c5cnn(C)c5)c4)c3)cc2C(F)(F)F)CC1 [I-9],EC50,BCWM.1,542 nM and 305 nM
same,EC50,Ramos,7470 nM
same,EC50,OCI-Ly19,2650 nM
same,EC50,MWCL-1,294 nM and 281 nM
"CCN1CCN(Cc2ccc(NC(=O)c3ccc(Cl)c(NC(=O)c4cncc(-c5cccs5)c4)c3)cc2C(F)(F)F)CC1 [I-2, N-(2-chloro-5-((4-((4-ethylpiperazin-1-yl)methyl)-3-(trifluoromethyl)phenyl)carbamoyl)phenyl)-5-(thiophen-2-yl)nicotinamide]",EC50,BCWM.1; BCWM1,12 nM
same,EC50,"Ramos; Homo sapiens, Ramos",60 nM
same,EC50,OCI-Ly3,161 nM
same,EC50,MWCL-1,16 nM
same,EC50,RPCIWM-1,110 nM
